Test results published in article PMC8129719 (CPT: Pharmacometrics & Systems Pharmacology, 2021).
“And” between values parts separate entries of the source, which are not always exact repeats. Identical values can stand only once. Counter-ions that a name gives are not always drawn. Like-named read-outs stand apart in the source and are kept apart here.

Key:
[1] = type: in vivo, human; settings: for CL renal: female, human, plasma and urine, oral; for contribution of renal elimination to total clearance: from model CLr and CLnr; for CLr, IIV (SE%) / k syn, IIV (SE%): interindividual variability; for CLnr, population estimate (SE%): nonrenal clearance of biomarker; for V, population estimate (SE%): volume of distribution of biomarker; for k syn, population estimate (SE%): zero-order synthesis rate
[2] = probenecid 500 mg 4 times a day; ref Willemin et al. (accepted for publication); cited from earlier work
[3] = Population PK model of probenecid plasma data; type: in vivo, human; settings: for CL, IIV (SE%) / V, IIV (SE%): interindividual variability
[4] = probenecid 1000 mg single dose, 14 healthy volunteers, digitized data; cited from earlier work

Row | Compound | CL renal [1] | contribution of renal elimination to total clearance [1] | CLr, IIV (SE%) [1] | k syn, IIV (SE%) [1] | CLr, IOV (SE%) ([1]; interoccasion variability) | CLnr, population estimate (SE%) [1] | V, population estimate (SE%) [1] | k syn, population estimate (SE%) [1] | fold change of plasma AUC0-24 h following probenecid [2] | ka, population estimate (SE%) ([3]; absorption rate constant) | CL, IIV (SE%) [3] | V, IIV (SE%) [3] | CL, IIV (SE%) ([3]; listed as probenecid) | V, IIV (SE%) ([3]; listed as probenecid) | V, population estimate (SE%) ([3]; probenecid one-compartment model) | k syn, IOV (SE%) ([1]; interoccasion variability between the two phases) | mean plasma AUC0-tlast ratio, observed [4]
1 | COc1cc(CC(=O)O)ccc1O [HVA, homovanillic acid] | 340 mL/min | 94% | 23 (26) % | 27 (19) % | 5 (48) % | 1.29 (69) L/h | 105 (35) L | 212 (16) µg/h | 2.2 fold | – | – | – | – | – | – | – | –
2 | C[C@H](CCC(=O)NCC(=O)O)[C@H]1CC[C@H]2[C@@H]3[C@H](O)C[C@@H]4C[C@H](OS(=O)(=O)O)CC[C@]4(C)[C@H]3CC[C@]12C [GCDCA-S, glycochenodeoxycholate sulfate] | – | – | – | – | – | – | – | – | 1.9 fold | – | – | – | – | – | – | – | –
3 | CCCN(CCC)S(=O)(=O)c1ccc(C(=O)O)cc1 [Probenecid, probenecid] | – | – | – | – | – | – | – | – | – | 0.74 (45) /h | 23 (23) % | 40 (29) % | 23% | 40% | 15 (22) L | – | –
4 | Cc1ncc(CO)c(C(=O)O)c1O [PDA, Pyridoxic acid] | 253 mL/min | 82% | 27% and 27 (15) % | 32% and 32 (34) % | – | 3.23 (41) L/h | 9.34 (56) L | 58.6 (26) µg/h | 3.9 fold | – | – | – | – | – | – | 22 (57) % | 1.95
